Results published in US20040005537A1, “Method of identifying toxic agents using differential gene expression” (priority 2000, published 2004).

Tested on: rat heart tissue
Assay: GENECALLING differential gene expression analysis after dosing of serotonin modulating agents
Type: in vivo, Sprague Dawley rats
Description: Control animals received sterile water or canola oil. The animals were sacrificed 24 hours following the last dose. Liver tissue was dissected from the animals, and total RNA was recovered from the dissected tissue. cDNA was prepared and the resulting samples were processed through using GENECALLING™ differential expression analysis as described in U.S. Pat. No. 5,871,697 and in Shimkets et al., Nature Biotechnology 17:798-803 (1999). The contents of these patents and publications are incorporated herein by reference in their entirety.
Thousands of gene fragments were initially found to be differentially expressed in rat heart tissue in response to serotonin modulating agents in. Genes fragments whose expression levels were modulated greater than ±1.5-fold were selected for further analysis.
Column 6 of Table 1, entitled “Function”, lists the type of classification assigned for the protein, based on its function. The 210 single nucleic acid sequences identified herein, are referred to herein as CARDIOTOX 1-210.

CN1C[C@H](C(=O)N[C@]2(C)O[C@@]3(O)[C@@H]4CCCN4C(=O)[C@H](Cc4ccccc4)N3C2=O)C[C@@H]2c3cccc4[nH]cc(c34)C[C@H]21 [dihydroergotamine]
Effects on Transcription Level: Novel gene fragment, 524 bp, 86% SI to mouse F-box protein FBX6b [AF176526] (CARDIOTOX 1): +1.3 fold
Effects on Transcription Level: Novel gene fragment, 306 bp, 91% SI to mouse low density lipoprotein receptor related protein 4 [AB013874] (CARDIOTOX 2): −1.4 fold
Effects on Transcription Level: Novel gene fragment, 540 bp, 97% SI to mouse skeletal muscle alpha-actin [X03766] (CARDIOTOX 3): +1.2 fold
Effects on Transcription Level: Novel gene fragment, 80 bp (CARDIOTOX 4): −1.4 fold
Effects on Transcription Level: Novel gene fragment, 957 bp, 99% SI to kidney injury associated moleculer HW036 [V80591] (CARDIOTOX 5): −1.4 fold
Effects on Transcription Level: Novel gene fragment, 282 bp, 85% SI to human KIAA1515 protein [AB040948] (CARDIOTOX 6): −1.2 fold
Effects on Transcription Level: Novel gene fragment, 405 bp, 88% SI to human 2-oxoglutarate dehydrogenase [D10523] (CARDIOTOX 7): +1.3 fold
Effects on Transcription Level: UCP2 (CARDIOTOX 8, GenBank AB010743): +1.0 fold
Effects on Transcription Level: Plasma membrane Ca2 + ATPase-isoform 1 (CARDIOTOX 9, GenBank J03753): −1.4 fold
Effects on Transcription Level: Novel gene fragment, 242 bp, 97% SI to mouse HSP86 heat-shock protein [X16857] (CARDIOTOX 10): +1.0 fold
Effects on Transcription Level: Novel gene fragment, 280 bp, 65% SI to human TRF1-interacting, ankyrin-related ADP-ribose polymerase [AF082556] (CARDIOTOX 11): +1.3 fold
Effects on Transcription Level: Novel gene fragment, 348 bp, 88% SI to mouse Sec61 protein complex gamma subunit [U11027] (CARDIOTOX 12): +1.4 fold
Effects on Transcription Level: Novel gene fragment 553 bp, 93% SI to mouse Sid329 [AB024984] (CARDIOTOX 13): +1.2 fold
Effects on Transcription Level: Kruppel-like transcription factor (CARDIOTOX 14, GenBank AB020759): +1.2 fold
Effects on Transcription Level: Ribosomal protein L3 (CARDIOTOX 15, GenBank X62166): +1.4 fold
Effects on Transcription Level: Glucose-regulated protein (GRP) 75 (CARDIOTOX 16, GenBank S78556): +1.2 fold
Effects on Transcription Level: Immunoglobulin heavy chain binding protein (BiP) (CARDIOTOX 17, GenBank M14050): +1.2 fold
Effects on Transcription Level: Membrane-spannining proteoglycan NG2 (CARDIOTOX 18, GenBank X56541): −1.4 fold
Effects on Transcription Level: Novel gene fragment, 1294 bp, 96% SI to mouse Sui 1 (elF) homolog [AF129888] (CARDIOTOX 19): +1.1 fold
Effects on Transcription Level: Novel gene fragment, 723 bp, 85% SI to human translation initiation factor elF3 p40 subunit [U54559] (CARDIOTOX 20): +1.2 fold
Effects on Transcription Level: Novel gene fragment, 1324 bp, 76% SI to human flavoprotein subunit of complex II [D30648] (CARDIOTOX 21): +1.3 fold
Effects on Transcription Level: Novel gene fragment, 852 bp, 81% SI to human vacuolar proton-ATPase subunit M9.2 [Y15286] (CARDIOTOX 22): +1.4 fold
Effects on Transcription Level: Novel gene fragment, 178 bp, 91% SI to mouse myosin light chain-2 isoform MLC-2a [S70785] (CARDIOTOX 23): +1.2 fold
Effects on Transcription Level: Novel gene fragment, 167 bp, 90% SI to mouse Rab20 [X80332] (CARDIOTOX 24): +1.2 fold
Effects on Transcription Level: Novel gene fragment, 1070 bp, 80% SI to human muscle-specific protein [AF249873] (CARDIOTOX 25): +1.2 fold
Effects on Transcription Level: Novel gene fragment, 1143 bp, 82% SI to human sarcoma amplified sequence (SAS) [U01160] (CARDIOTOX 26): +1.4 fold
Effects on Transcription Level: Novel gene fragment, 74 bp,75% SI to human secreted protein [X30160] (from patent database)/[X97578] (from patent database)/potential cytokine) (CARDIOTOX 27): +1.4 fold
Effects on Transcription Level: Novel gene fragment, 408 bp, 90% SI to human CGI-07 protein [AF132941] (CARDIOTOX 28): +1.2 fold
Effects on Transcription Level: Novel gene fragment, 618 bp, 95% SI to rat progression related cDNA, ZNPE-120 3′ end partial sequence [patent database X90805] (CARDIOTOX 29): +1.0 fold
Effects on Transcription Level: Novel gene fragment, 717 bp (CARDIOTOX 30): +1.2 fold
Effects on Transcription Level: Novel gene fragment, 546 bp (CARDIOTOX 31): −1.0 fold
Effects on Transcription Level: Novel gene fragment, 920 bp, 91% SI to human HSPC061 [AF161546] (CARDIOTOX 32): +1.3 fold
Effects on Transcription Level: Novel gene fragment, 203 bp, 92% SI to rabbit sarcoplasmic reticulum glycoprotein [J04480] (CARDIOTOX 33): −1.1 fold
Effects on Transcription Level: Novel gene fragment, 178 bp, 68% SI to mouse IgG receptor (beta-Fc-gamma-RII)[M63159] (CARDIOTOX 34): +1.2 fold
Effects on Transcription Level: Ribosomal protein L6 (CARDIOTOX 35, GenBank X87107): +1.4 fold
Effects on Transcription Level: CAP2 protein (adenylyl cyclase-associated protein 2) (CARDIOTOX 36, GenBank U31935): +1.2 fold
Effects on Transcription Level: Alpha-platelet-derived growth factor receptor (CARDIOTOX 37, GenBank M63837): −1.0 fold
Effects on Transcription Level: Rab GD1 alpha protein (CARDIOTOX 38, GenBank X74402): −1.1 fold
Effects on Transcription Level: PKC-zeta-interacting protein (CARDIOTOX 39, GenBank Y08355): +1.2 fold
Effects on Transcription Level: ERK or MAP kinase (CARDIOTOX 40, GenBank X65198): +1.4 fold
Effects on Transcription Level: Peroxisomal multifunctional enzyme type II (CARDIOTOX 41, GenBank U37486): +1.2 fold
Effects on Transcription Level: HBP23 (heme-binding protein 23 kDa) (CARDIOTOX 42, GenBank D30035): +1.3 fold
Effects on Transcription Level: Caveolae-associated protein (CARDIOTOX 43, GenBank U90725): +1.3 fold
Effects on Transcription Level: Prenylated rab acceptor 1 (PRA1) (CARDIOTOX 44, GenBank AF025506): +1.0 fold
Effects on Transcription Level: Novel gene fragment, 337 bp, 88% SI to rabbit cardiac ryanodine receptor (RyR-2)[U50465] (CARDIOTOX 45): −2.5 fold
Effects on Transcription Level: Novel gene fragment, 81 bp, 85% SI to human titin [X90568] (CARDIOTOX 46): −2.8 fold
Effects on Transcription Level: Novel gene fragment, 428 bp, 86% SI to human titin [X90568] (CARDIOTOX 47): −1.7 fold
Effects on Transcription Level: Novel gene fragment, 374 bp, 88% SI to human titin [X90568] (CARDIOTOX 48): −5.5 fold
Effects on Transcription Level: Novel gene fragment, 428 bp, 85% SI to human titin [90568] (CARDIOTOX 49): −3.8 fold
Effects on Transcription Level: Novel gene fragment, 1216 bp, 93% SI to mouse mircotubule-associated protein (MAP) 1B protein [AF115776] (CARDIOTOX 50): −1.5 fold
Effects on Transcription Level: Novel gene fragment, 1115 bp, 83% SI to human KIAA0549 protein [AB011121] (CARDIOTOX 51): −1.5 fold
Effects on Transcription Level: Novel gene fragment, 153 bp (CARDIOTOX 52): −1.7 fold
Effects on Transcription Level: Novel gene fragment, 89 bp, 93% SI to human putative glialblastoma cell differentiation-related protein (GBDR1) [AF068195] (CARDIOTOX 53): +1.5 fold
Effects on Transcription Level: Rho-associated kinase beta (CARDIOTOX 54, GenBank U61266): −2.6 fold
Effects on Transcription Level: Adenylate kinase 3 (CARDIOTOX 55, GenBank D13062): +1.5 fold
Effects on Transcription Level: Amyloid beta-peptide binding protein (CARDIOTOX 56, GenBank AF049878): +1.7 fold
Effects on Transcription Level: Mitochondrial adenine nuleotide translocator (CARDIOTOX 57, GenBank D12771): +1.8 fold
Effects on Transcription Level: Novel gene fragment, 710 bp, 94% SI to mouse chromatin structural protein homolog Supt5 hp (Supt5 h)[U88539] (CARDIOTOX 58): +2.8 fold
Effects on Transcription Level: Novel gene fragment, 186 bp, 66% SI to human N-acetylglucosaminyltransferase 1 (GlcNAc-TI)[M55621] (CARDIOTOX 60): −1.5 fold
Effects on Transcription Level: Novel gene fragment, 238 bp, 95% SI to mouse MAP kinase-activated protein kinase 2 [X76850] (CARDIOTOX 61): −1.5 fold
Effects on Transcription Level: Novel gene fragment, 173 bp, 70% SI to G protein-coupled receptor kinase GRK4 [X97568] (CARDIOTOX 62): −7.2 fold
Effects on Transcription Level: Novel gene fragment, 133 bp, 77% SI to human apoptosis related protein hSARP3 [patent database: V19114] (CARDIOTOX 63): −2.5 fold
Effects on Transcription Level: Novel gene fragment, 477 bp, 98% SI to peroxisomal phytanoyl-CoA hydroxylase (PHYH) [AF121345] (CARDIOTOX 64): +8.0 fold
Effects on Transcription Level: Novel gene fragment, 413 bp, 95% SI to mouse dihydrolipoamide dehydrogenase (Dld) [U73445] (CARDIOTOX 65): +2.2 fold
Effects on Transcription Level: Novel gene fragment, 726 bp, 76% SI to human succinate dehydrogenase flavoprotein subunit (SDH) [L21936] (CARDIOTOX 66): −3.6 fold
Effects on Transcription Level: Novel gene fragment, 440 bp, 92% SI to mouse cytochrome c oxidase Vllc [X52940] (CARDIOTOX 67): +4.1 fold
Effects on Transcription Level: Novel gene fragment, 276 bp, 80% SI to human titin [X90568] (CARDIOTOX 68): −6.5 fold
Effects on Transcription Level: Novel gene fragment, 149 bp, 70% SI to human titin [X90568] (CARDIOTOX 69): +8.0 fold
Effects on Transcription Level: Novel gene fragment, 467 bp, 94% SI to mouse gelsolin [J04953] (CARDIOTOX 70): −1.6 fold
